{"source": "patent US20100267561A1", "about": "“HERBICIDAL PYRIDAZINONE DERIVATIVES” (priority 2007, published 2010)", "format_in_all_cases": "in vivo", "key": {"[1]": {"test_system": "blackgrass (Alopecurus myosuroides)", "assay": "Test C pre-/postemergence plant response", "conditions": "Preemergence", "how_it_was_run": "(§1)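 Seeds are planted and sprayed preemergence, while established plants at the 1- to 4-leaf stage (2 to 18 cm) receive postemergence sprays of the same surfactant-containing, non-phytotoxic solvent formulation. After 15 to 25 days under controlled conditions, injury is scored visually from 0 (no effect) to 100 (complete control).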"}, "[2]": {"test_system": "canarygrass (Phalaris minor)", "assay": "Test C pre-/postemergence plant response", "conditions": "Preemergence", "how_it_was_run": "as §1"}, "[3]": {"test_system": "winter barley (Hordeum vulgare)", "assay": "Test C pre-/postemergence plant response", "conditions": "Preemergence", "how_it_was_run": "as §1"}, "[4]": {"test_system": "Italian ryegrass (Lolium multiflorum)", "assay": "Test C pre-/postemergence plant response", "conditions": "Preemergence", "how_it_was_run": "as §1"}, "[5]": {"test_system": "spring wheat (Triticum aestivum)", "assay": "Test C pre-/postemergence plant response", "conditions": "Preemergence", "how_it_was_run": "as §1"}, "[6]": {"test_system": "pigweed (Amaranthus retroflexus)", "assay": "Test C pre-/postemergence plant response", "conditions": "Preemergence", "how_it_was_run": "as §1"}, "[7]": {"test_system": "green foxtail (Setaria viridis)", "assay": "Test C pre-/postemergence plant response", "conditions": "Preemergence", "how_it_was_run": "as §1"}, "[8]": {"test_system": "wild mustard (Sinapis arvensis)", "assay": "Test C pre-/postemergence plant response", "conditions": "Preemergence", "how_it_was_run": "as §1"}, "[9]": {"test_system": "annual bluegrass (Poa annua)", "assay": "Test C pre-/postemergence plant response", "conditions": "Preemergence", "how_it_was_run": "as §1"}, "[10]": {"test_system": "winter wheat (Triticum aestivum)", "assay": "Test C pre-/postemergence plant response", "conditions": "Preemergence", "how_it_was_run": "as §1"}, "[11]": {"test_system": "spring barley (Hordeum vulgare)", "assay": "Test C pre-/postemergence plant response", "conditions": "Preemergence", "how_it_was_run": "as §1"}, "[12]": {"test_system": "downy bromegrass (Bromus tectorum)", "assay": "Test C pre-/postemergence plant response", "conditions": "Preemergence", "how_it_was_run": "as §1"}, "wild oat (Avena fatua)": {"test_system": "wild oat (Avena fatua)", "assay": "Test C pre-/postemergence plant response", "conditions": "Preemergence", "how_it_was_run": "as §1"}, "[13]": {"test_system": "windgrass (Apera spica-venti)", "assay": "Test C pre-/postemergence plant response", "conditions": "Preemergence", "how_it_was_run": "as §1"}, "rice (Oryza sativa)": {"test_system": "rice (Oryza sativa)", "assay": "Test B flooded paddy test plant response", "how_it_was_run": "(§2)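 Paddy-water application to 2-leaf plants in pots held under 3 cm of flooding; response is a 0–100 visual control rating against controls after 13 to 15 days, and a dash marks a missing result.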"}, "[14]": {"test_system": "ducksalad (Heteranthera limosa)", "assay": "Test B flooded paddy test plant response", "how_it_was_run": "as §2"}, "[15]": {"test_system": "umbrella sedge (Cyperus difformis)", "assay": "Test B flooded paddy test plant response", "how_it_was_run": "as §2"}, "[16]": {"conditions": "8 g ai/ha, scale 0 to 100 (0 no effect, 100 complete control)"}, "[17]": {"conditions": "16 g ai/ha, scale 0 to 100 (0 no effect, 100 complete control)"}, "[18]": {"conditions": "31 g ai/ha, scale 0 to 100 (0 no effect, 100 complete control)"}, "[19]": {"conditions": "62 g ai/ha, scale 0 to 100, 0 no effect, 100 complete control"}, "[20]": {"conditions": "Flood (flooded paddy test), 62 g ai/ha, scale 0 to 100, 0 no effect, 100 complete control"}, "[21]": {"conditions": "Flood (flooded paddy test), 125 g ai/ha, scale 0 to 100, 0 no effect, 100 complete control"}, "[22]": {"conditions": "Flood (flooded paddy test), 250 g ai/ha, scale 0 to 100, 0 no effect, 100 complete control"}, "[23]": {"conditions": "Flood, 31 g ai/ha, scale 0 to 100"}}}
{"smiles": "Cn1ncc(O)c(-c2nn(-c3ccc(Cl)cc3)cc2Cl)c1=O", "note": "[Compound 28]", "values": [{"measurement": "Plant response rating, Blackgrass", "setting": "[1]; [16]", "value": 0}, {"measurement": "Plant response rating, Blackgrass", "setting": "[1]; [17]", "value": 5}, {"measurement": "Plant response rating, Blackgrass", "setting": "[1]; [18]", "value": 15}, {"measurement": "Plant response rating, Blackgrass", "setting": "[1]; [19]", "value": 85}, {"measurement": "Plant response rating, Canarygrass", "setting": "[2]; [16]", "value": 0}, {"measurement": "Plant response rating, Canarygrass", "setting": "[2]; [17]", "value": 0}, {"measurement": "Plant response rating, Canarygrass", "setting": "[2]; [18]", "value": 10}, {"measurement": "Plant response rating, Canarygrass", "setting": "[2]; [19]", "value": 90}, {"measurement": "Plant response rating, Barley, Winter", "setting": "[3]; [16]", "value": 0}, {"measurement": "Plant response rating, Barley, Winter", "setting": "[3]; [17]", "value": 0}, {"measurement": "Plant response rating, Barley, Winter", "setting": "[3]; [18]", "value": 0}, {"measurement": "Plant response rating, Barley, Winter", "setting": "[3]; [19]", "value": 40}, {"measurement": "Plant response rating, Ryegrass, Italian", "setting": "[4]; [16]", "value": 0}, {"measurement": "Plant response rating, Ryegrass, Italian", "setting": "[4]; [17]", "value": 15}, {"measurement": "Plant response rating, Ryegrass, Italian", "setting": "[4]; [18]", "value": 90}, {"measurement": "Plant response rating, Ryegrass, Italian", "setting": "[4]; [19]", "value": 95}, {"measurement": "Plant response rating, Wheat, Spring", "setting": "[5]; [16]", "value": 0}, {"measurement": "Plant response rating, Wheat, Spring", "setting": "[5]; [17]", "value": 0}, {"measurement": "Plant response rating, Wheat, Spring", "setting": "[5]; [18]", "value": 35}, {"measurement": "Plant response rating, Wheat, Spring", "setting": "[5]; [19]", "value": 50}, {"measurement": "Plant response rating, Pigweed", "setting": "[6]; [16]", "value": 0}, {"measurement": "Plant response rating, Pigweed", "setting": "[6]; [17]", "value": 0}, {"measurement": "Plant response rating, Pigweed", "setting": "[6]; [18]", "value": 0}, {"measurement": "Plant response rating, Pigweed", "setting": "[6]; [19]", "value": 0}, {"measurement": "Plant response rating, Foxtail, Green", "setting": "[7]; [16]", "value": 0}, {"measurement": "Plant response rating, Foxtail, Green", "setting": "[7]; [17]", "value": 20}, {"measurement": "Plant response rating, Foxtail, Green", "setting": "[7]; [18]", "value": 100}, {"measurement": "Plant response rating, Foxtail, Green", "setting": "[7]; [19]", "value": 100}, {"measurement": "Plant response rating, Mustard, Wild", "setting": "[8]; [16]", "value": 0}, {"measurement": "Plant response rating, Mustard, Wild", "setting": "[8]; [17]", "value": 0}, {"measurement": "Plant response rating, Mustard, Wild", "setting": "[8]; [18]", "value": 0}, {"measurement": "Plant response rating, Mustard, Wild", "setting": "[8]; [19]", "value": 0}, {"measurement": "Plant response rating, Bluegrass", "setting": "[9]; [16]", "value": 0}, {"measurement": "Plant response rating, Bluegrass", "setting": "[9]; [17]", "value": 0}, {"measurement": "Plant response rating, Bluegrass", "setting": "[9]; [19]", "value": 50}, {"measurement": "Plant response rating, Wheat, Winter", "setting": "[10]; [16]", "value": 0}, {"measurement": "Plant response rating, Wheat, Winter", "setting": "[10]; [17]", "value": 10}, {"measurement": "Plant response rating, Wheat, Winter", "setting": "[10]; [18]", "value": 30}, {"measurement": "Plant response rating, Wheat, Winter", "setting": "[10]; [19]", "value": 60}, {"measurement": "Plant response rating, Barley, Spring", "setting": "[11]; [16]", "value": 0}, {"measurement": "Plant response rating, Barley, Spring", "setting": "[11]; [17]", "value": 15}, {"measurement": "Plant response rating, Barley, Spring", "setting": "[11]; [18]", "value": 15}, {"measurement": "Plant response rating, Barley, Spring", "setting": "[11]; [19]", "value": 25}, {"measurement": "Plant response rating, Bromegrass, Downy", "setting": "[12]; [16]", "value": 0}, {"measurement": "Plant response rating, Bromegrass, Downy", "setting": "[12]; [17]", "value": 0}, {"measurement": "Plant response rating, Bromegrass, Downy", "setting": "[12]; [18]", "value": 20}, {"measurement": "Plant response rating, Bromegrass, Downy", "setting": "[12]; [19]", "value": 75}, {"measurement": "Plant response rating, Oat, Wild", "setting": "wild oat (Avena fatua); [16]", "value": 0}, {"measurement": "Plant response rating, Oat, Wild", "setting": "wild oat (Avena fatua); [17]", "value": 0}, {"measurement": "Plant response rating, Oat, Wild", "setting": "wild oat (Avena fatua); [18]", "value": 20}, {"measurement": "Plant response rating, Oat, Wild", "setting": "wild oat (Avena fatua); [19]", "value": 75}, {"measurement": "Plant response rating, Windgrass", "setting": "[13]; [16]", "value": 20}, {"measurement": "Plant response rating, Windgrass", "setting": "[13]; [17]", "value": 30}, {"measurement": "Plant response rating, Windgrass", "setting": "[13]; [18]", "value": 75}, {"measurement": "Plant response rating, Windgrass", "setting": "[13]; [19]", "value": 85}, {"measurement": "Plant response rating, Rice", "setting": "rice (Oryza sativa); [20]", "value": 0}, {"measurement": "Plant response rating, Rice", "setting": "rice (Oryza sativa); [21]", "value": 0}, {"measurement": "Plant response rating, Rice", "setting": "rice (Oryza sativa); [22]", "value": 60}, {"measurement": "Plant response rating, Rice", "setting": "rice (Oryza sativa); [23]", "value": 0}, {"measurement": "Plant response rating, Ducksalad", "setting": "[14]; [20]", "value": 0}, {"measurement": "Plant response rating, Ducksalad", "setting": "[14]; [21]", "value": 0}, {"measurement": "Plant response rating, Ducksalad", "setting": "[14]; [22]", "value": 0}, {"measurement": "Plant response rating, Ducksalad", "setting": "[14]; [23]", "value": 0}, {"measurement": "Plant response rating, Sedge, Umbrella", "setting": "[15]; [20]", "value": 0}, {"measurement": "Plant response rating, Sedge, Umbrella", "setting": "[15]; [21]", "value": 0}, {"measurement": "Plant response rating, Sedge, Umbrella", "setting": "[15]; [22]", "value": 0}, {"measurement": "Plant response rating, Sedge, Umbrella", "setting": "[15]; [23]", "value": 0}]}
